Laboratory results as given in US11083798B2, “Conjugate including peptide molecule capable of self-assembly in cell organelle and pharmaceutical composition for preventing or treating cancer including conjugate” (UNIST (ULSAN NATIONAL INSTITUTE OF SCIENCE AND TECHNOLOGY), priority 2016, dated 2021).

How the values were obtained:
HeLa cells [1] = assay: ROS generation within the cell with dihydroethidium (DHE); assay type: cell-based, human
Text: The mitochondrial stress may eventually lead to the whole-cell stress. […] DHE dye may intercalate with nuclear DNA and oxidizes to ethidium in the presence of ROS, which may show red fluorescence.
(§1) TEM images of Mito-VV and Mito-FxFx were obtained by observation in the same manner as in Example 3.

[2] = system: HeLa, MDA-MB-486, MCF10, PC3, SCC7, HEK293T, NIH-3T3; assay: cell cytotoxicity, Alamar Blue assay, variety of cell lines; assay type: cell-based; settings: 24 hours, FIG. 33, read-out: IC50 (cell viability)
Description: After the confirmation of the intra-mitochondrial assembly of peptide amphiphile, the toxicity of Mito-peptides toward a variety of cells was analyzed, the cells including cancer cell lines such as HeLa (ATCC, cervical cancer), MDA-MB-486 (ATCC) (mammary cancer) MCF10 (breast cancer), PC3 (ATCC, prostate cancer), SCC7 (ATCC, skin cancer), HEK293T (ATCC), and NIH-3T3 (ATCC).
(§2) In order to analyze cell cytotoxicity, the cancer cells were incubated in an incubator including a DMEM medium (available from Gibco) containing 10% of FBS, 1% of penicillin/streptomycin (available from Life Technologies) at a temperature of 37° C. Cell viability thereof was measured 24 hours after cell incubation, by following the protocol of the manufacturer of Alamar Blue assay (available from Thermo Fisher Scientific).

HeLa cells [3] = assay: ROS generation within mitochondria with Mito SOX Red; assay type: cell-based, human; settings: 6 hours of incubation with HeLa cells
Text: The mitochondrial dysfunction may result in excessive production of reactive oxygen species (ROS). To confirm the oxidative stress induced by Mito-FF, generation of ROS within mitochondria was monitored using Mito SOX Red.

[4] = self-assembled morphology and size by electron microscopy (TEM); assay type: physicochemical; settings: PBS (10 mM) and water
HeLa cells [5] = assay: FITC annexin/PI staining assay, confocal microscopy; assay type: cell-based, human; settings: 10 μM, Annexin V positive, PI negative
Description: Mitochondria play a vital role in the initiation of an intrinsic apoptosis cascade. It was anticipated that a Mito-peptide localized in a mitochondrion may self-assemble, thereby causing stress in the mitochondrion and inducing apoptotic mechanisms. To confirm this prediction experimentally, FITC annexin/PI staining assay was performed.
For the FIIC annexin/PI staining assay, HeLa cells were incubated in an incubator including a DMEM medium (available from Gibco) containing 10% of FBS and 1% of penicillin/streptomycin (available from Life Technologies) at a temperature of 37° C. 10 μM of each peptide was incubated for 1, 4, 6, 8, or 10 hours. Following the protocol of the manufacturer, the cells were incubated for 15 minutes at room temperature in the presence of 100 μL of annexin-binding buffer solution, 5 μL of Alexa Fluor 488-conjugated annexin V (V13241 available from Life Technologies), and 1 μL of a 100 μg/mL PI working solution.

[6] = critical aggregation concentration (CAC) by pyrene excitation method; assay type: physicochemical; settings: pyrene excitation spectrum, I344/I339
Description: In order to verify whether intracellular self-assembly of the Mito-FF according to the present disclosure can occur or not, the CAC of the Mito-FF was measured as follows.
Intensities of emission at 344 nanometers (nm) and 339 nm in a pyrene excitation spectrum differ according to whether pyrene molecules are present as unaggregated individual molecules or as aggregated molecules. The intensities at 344 nm and 339 nm in the excitation spectrum were measured, and the ratio of an intensity in the excitation spectrum at 344 nm to an intensity in the excitation spectrum at 339 nm was calculated. Based on the standard curve shown in FIG. 4, the CAC for Mito-FF was determined.

HeLa cells [7] = assay: flow cytometric analysis (FACS) with annexin V/PI staining; assay type: cell-based, human; settings: 10 μM
Description: For the quantitative analysis of apoptosis, flow cytometric analysis (FACS) was conducted over time with FI-TC annexin V/PI staining assay by using FACSCalibur (available from BD Bioscience), following the protocol of the manufacturer.
In detail, HeLa cells treated with 10 μM of Mito-FF were incubated for 4 hours or 8 hours. Then, FACS analysis was performed thereon.

[8] = liposomal leakage assay (calcein release)
Description: To confirm this expectation, a liposomal leakage assay was conducted.
The release of a self-quenching dye such as calcine from liposome is commonly used to test integrity of lipid bilayers. […] Different concentrations of Mito-FF were added to a vesicle-containing solution, and leakage of encapsulated calcein from the vesicle was monitored.

HeLa cells [9] = assay: mitochondrial membrane potential depolarization with TMRM; assay type: cell-based, human; settings: HeLa cells incubated with TMRM and peptide
Text: Under normal conditions, the inner membrane of mitochondria is in an electrochemically polarized state with a higher concentration of H^+ in the inner membrane space. The electrochemical gradient across the membrane causes H^+ to flow to the inner membrane of mitochondria and this process is coupled with production of adenosine triphosphate (ATP). The external materials which may uncouple this process cause the flow of H^+ to be independent of ATP production. This condition is referred as mitochondrial depolarization, which serves as a preliminary indication of mitochondrial dysfunction.
To examine the effect of Mito-FF on the mitochondrial membrane potential, HeLa cells were incubated with TMRM and Mito-FF. The fluorescence emission from the TMRM was monitored at times lapses of 1 hour, 3 hours, and 6 hours. Red fluorescence of TMRM appears when a mitochondrial membrane is completely polarized, whereas depolarization of a mitochondrial membrane causes disappearance of TMRM red fluorescence.
as §1

HeLa cells [10] = assay: TEM image analysis of mitochondrial dysfunction in treated cells; assay type: cell-based, human; settings: 20 μM, 3 hours
Description: To visualize the mitochondrial dysfunction induced by Mito-FF, a TEM image analysis was conducted with HeLa cells treated with Mito-FF of a concentration of 20 μM for 3 hours in the same manner as in Example 3.

[11] = system: HEK 293T normal cell lines; assay: cell viability of normal cell line, Alamar Blue assay; assay type: cell-based; settings: 24 hours of treatment
Description: as §2
In order to confirm whether apoptosis occurs or not by treatment with Mito-peptides, the cell viability of HEK 293T normal cell lines treated with Mito-FF, Mito-FxFx, Mito-VV, or Mito-GG was measured in the same manner as described above.

HeLa cells [12] = settings: 24 hours, FIG. 32

CC(C)[C@H](NC(=O)CCCc1ccc2ccc3cccc4ccc1c2c34)C(=O)N[C@H](C(=O)N[C@@H](CCCCNCCCCC[P+](c1ccccc1)(c1ccccc1)c1ccccc1)C(N)=O)C(C)C [Mito-VV]
ROS generation within the cell (DHE) (HeLa cells [1]): ROS generation | IC50 [2]: 10 µM

NC(=O)[C@H](CCCCNCCCCC[P+](c1ccccc1)(c1ccccc1)c1ccccc1)NC(=O)[C@H](Cc1ccccc1)NC(=O)[C@H](Cc1ccccc1)NC(=O)CCCc1ccc2ccc3cccc4ccc1c2c34 [Mito-FF]
ROS generation within the cell (DHE) (HeLa cells [1]): significant ROS was generated | ROS generation inside mitochondria (Mito SOX Red) (HeLa cells [3]): ROS was generated inside the mitochondria | average length of nanofibers [4]: 500 nm | average width of individual fibers [4]: 10 nm | time until cells entered an early apoptotic stage (HeLa cells [5]): ≤ 6 h | critical aggregation concentration (CAC) [6]: 60 µM | time at which late apoptotic stage started (HeLa cells [7]): > 10 h | total population of the cells that entered an early apoptotic stage (HeLa cells [7]; within 2 hours): about 81.2% | dye leakage at a concentration below the CAC ([8]; concentration below the CAC): did not induce any dye leakage | leakage of calcein / dye release from liposome ([8]; within 24 hours): 100% | time until red fluorescence of TMRM disappeared (membrane depolarization) (HeLa cells [9]): ≤ 6 h | state of mitochondrion in TEM image (HeLa cells [10]): severely damaged | toxicity against normal cells [11]: innocuous

NC(=O)[C@H](CCCCNCCCCC[P+](c1ccccc1)(c1ccccc1)c1ccccc1)NC(=O)[C@H](CC1CCCCC1)NC(=O)[C@H](CC1CCCCC1)NC(=O)CCCc1ccc2ccc3cccc4ccc1c2c34 [Mito-FxFx]
ROS generation within the cell (DHE) (HeLa cells [1]): ROS generation | IC50 [2]: 10 µM

pyrene-FFKFxrFxr
toxicity in HeLa cells (HeLa cells [12]): significant toxicity
